Patent publication US20240247015A1, “PHOSPHORUS DERIVATIVES AS NOVEL SOS1 INHIBITORS” (BAYER AKTIENGESELLSCHAFT, priority 2021, published 2024)

Molecular target: interaction of human SOS1 (SOS1) with human K-RasG12C (Homo sapiens (Human), UniProt Q07889)
Assay: Biochemical assay: hK-RasG12C interaction assay with hSOS1 (HTRF)
Assay type: binding
Settings: GST-hK-RasG12C with His-hSOS1, 60 min incubation at 20° C., mean, read-out: K-RasG12C - SOS interaction assay IC50 (mean)
How it was run: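 Compounds, duplicates at 11 concentrations from 0.073 nM to 20 µM, were preincubated 2 min with 10 nM GST-hK-RasG12C, then 20 nM His-hSOS1 was added, all at 20 °C. After 60 min, 665/620 nm HTRF ratio normalized to DMSO and SOS1-free controls; IC50 by 4-parameter fit.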

Chain of interaction of human SOS1 (SOS1) with human K-RasG12C (Q07889 564-1049 limits assumed): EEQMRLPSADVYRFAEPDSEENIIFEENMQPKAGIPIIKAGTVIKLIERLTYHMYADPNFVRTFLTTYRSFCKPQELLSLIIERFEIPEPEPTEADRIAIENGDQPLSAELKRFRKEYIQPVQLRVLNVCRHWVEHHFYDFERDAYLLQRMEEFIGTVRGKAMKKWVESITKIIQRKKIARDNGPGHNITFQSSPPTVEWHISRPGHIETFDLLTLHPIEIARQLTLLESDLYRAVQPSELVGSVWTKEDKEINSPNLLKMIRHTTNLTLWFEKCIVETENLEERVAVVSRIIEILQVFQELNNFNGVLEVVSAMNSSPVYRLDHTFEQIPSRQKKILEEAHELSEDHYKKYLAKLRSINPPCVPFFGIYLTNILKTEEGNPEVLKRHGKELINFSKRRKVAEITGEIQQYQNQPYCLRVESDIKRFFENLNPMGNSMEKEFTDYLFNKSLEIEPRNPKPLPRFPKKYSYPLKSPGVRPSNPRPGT

SMILES | IC50
Cc1nc(N[C@H](C)c2cccc(C(F)(F)F)c2C)c2cc(P3(=O)CCN(c4ccn(C)n4)CC3)ncc2n1 [Example 40, 4-[2-methyl-4-({(1R)-1-[2-methyl-3-(trifluoromethyl)phenyl]ethyl}amino)pyrido[3,4-d]pyrimidin-6-yl]-1-(1-methyl-1H-pyrazol-3-yl)-1,4lambda^5-azaphosphinan-4-one] | 18.3 nM
Cc1nc(N[C@H](C)c2cccc(C(F)(F)F)c2C)c2cc(P3(=O)CCN(S(C)(=O)=O)CC3)ncc2n1 [Example 41, 1-(methanesulfonyl)-4-[2-methyl-4-({(1R)-1-[2-methyl-3-(trifluoromethyl)phenyl]ethyl}amino)pyrido[3,4-d]pyrimidin-6-yl]-1,4lambda^5-azaphosphinan-4-one] | 174 nM
CC(=O)N1CCP(=O)(c2cc3c(N[C@H](C)c4cccc(C(F)(F)C(=O)O)c4F)nc(C)nc3cn2)CC1 [Example 43, {3-[(1R)-1-{[6-(1-acetyl-4-oxo-1,4lambda^5-azaphosphinan-4-yl)-2-methylpyrido[3,4-d]pyrimidin-4-yl]amino}ethyl]-2-fluorophenyl}(difluoro)acetic acid] | 375 nM
Cc1nc(N[C@H](C)c2cccc(C(F)(F)C(N)=O)c2F)c2cc(P(C)(C)=O)ncc2n1 [Example 48, 2-{3-[(1R)-1-{[6-(dimethylphosphoryl)-2-methylpyrido[3,4-d]pyrimidin-4-yl]amino}ethyl]-2-fluorophenyl}-2,2-difluoroacetamide] | 29.3 nM

Stronger by IC50, values ahead:

IC50 | SMILES
17 nM | CC(=O)N1CCP(=O)(c2cc3c(N[C@H](C)c4cccc(C(F)(F)C(=O)N(C)C)c4F)nc(C)nc3cn2)CC1 [Example 45, 2-{3-[(1R)-1-{[6-(1-acetyl-4-oxo-1,4lambda^5-azaphosphinan-4-yl)-2-methylpyrido[3,4-d]pyrimidin-4-yl]amino}ethyl]-2-fluorophenyl}-2,2-difluoro-N,N-dimethylacetamide]
15.9 nM | CC(=O)N1CCP(=O)(c2cc3c(N[C@H](C)c4cccc(C(F)(F)C(=O)NC5CC5)c4F)nc(C)nc3cn2)CC1 [Example 44, 2-{3-[(1R)-1-{[6-(1-acetyl-4-oxo-1,4lambda^5-azaphosphinan-4-yl)-2-methylpyrido[3,4-d]pyrimidin-4-yl]amino}ethyl]-2-fluorophenyl}-N-cyclopropyl-2,2-difluoroacetamide]
13.8 nM | CNC(=O)C(F)(F)c1cccc([C@@H](C)Nc2nc(C)nc3cnc(P4(=O)CCN(C(C)=O)CC4)cc23)c1F [Example 47, 2-{3-[(1R)-1-{[6-(1-acetyl-4-oxo-1,4lambda^5-azaphosphinan-4-yl)-2-methylpyrido[3,4-d]pyrimidin-4-yl]amino}ethyl]-2-fluorophenyl}-2,2-difluoro-N-methylacetamide]
11.1 nM | Cc1nc(N[C@H](C)c2cccc(C(F)(F)F)c2C)c2cc(P3(=O)CCN(c4cnn(C)c4)CC3)ncc2n1 [Example 39, 4-[2-methyl-4-({(1R)-1-[2-methyl-3-(trifluoromethyl)phenyl]ethyl}amino)pyrido[3,4-d]pyrimidin-6-yl]-1-(1-methyl-1H-pyrazol-4-yl)-1,4lambda^5-azaphosphinan-4-one]
6.1 nM | CC(=O)N1CCP(=O)(c2cc3c(N[C@H](C)c4cccc(C(F)(F)C(N)=O)c4F)nc(C)nc3cn2)CC1 [Example 46, 2-{3-[(1R)-1-{[6-(1-acetyl-4-oxo-1,4lambda^5-azaphosphinan-4-yl)-2-methylpyrido[3,4-d]pyrimidin-4-yl]amino}ethyl]-2-fluorophenyl}-2,2-difluoroacetamide]
4.87 nM | CC(=O)N1CCP(=O)(c2cc3c(N[C@H](C)c4cccc(C(F)(F)CO)c4F)nc(C)nc3cn2)CC1 [Example 42, 1-acetyl-4-[4-({(1R)-1-[3-(1,1-difluoro-2-hydroxyethyl)-2-fluorophenyl]ethyl}amino)-2-methylpyrido[3,4-d]pyrimidin-6-yl]-1,4lambda^5-azaphosphinan-4-one]
